In patent US8809052B2, “Methods of generating mature oligodendrocytes” (Yeda Research and Development Co. Ltd., priority 2006, dated 2014):
Entries after “also recorded” stand apart in the source; their conditions may differ.

Tests used:
[1] = test system: human ES cell-derived neuroglial sphere cells; assay: Count of O4+ cells with oligodendrocyte branching morphology per field after terminal differentiation; format: cell-based
Method: Differentiation of ES cells into oligodendrocytes—The following steps were taken for initiating ES cell differentiation:
1. Step T: Transition step—Collagenase detached huESC colonies pooled from six 6-well plates, into a 15 ml tube supplemented with ES1 medium, were let to sediment by gravity for about 30 minutes in the incubator (37° C.). Colonies were then washed once in ES1 medium and then transferred to 12×6 cm tissue culture plates in 5 ml transition medium (T-medium) consisting of 50% (v/v) ES1 medium, and 50% (v/v) of ITTSPP/B27 medium. Growth factors (GF), recombinant human EGF (20 ng/ml, R&D Systems, Minneapolis, Minn.) and recombinant human bFGF (4 ng/ml, Biotest, Dreieich, Germany) were added to the transition medium. Thereafter (1 d), some cells adhered but the bulk of huESC colonies and aggregates remained in suspension and were transferred to 12 bacterial (non-adherent) plates in the same transition medium and cultured for 1 day. Then, 10 μM retinoic acid (RA, Sigma-Aldrich, St. Lewis, Mo.) was added to the T-medium and cells were cultured for an additional day.
2. Step R: Retinoic acid treatment—The medium was switched to ITTSPP/B27 containing 20 ng/ml of EGF and 10 μM RA. Medium was changed every day for 7 days, and colonies were concentrated by gravity, without centrifugation.
3. Step S: Suspension culture—During this step, which allows for ripening of neurospheres (NS), the aggregates were cultured in ITTSPP/B27 medium supplemented with 20 ng/ml EGF, for 18 days, changing medium every two days. The ITTSPP/B27 medium was, or was not supplemented with 50 ng/ml Noggin-Fc chimera (R&D systems, Minneapolis, Minn.), in order to examine the effect of noggin.
4. Steps M1,2: Adherence to matrigel-coated plates—Spheres or aggregates from one original 6-well plate were distributed to another 6-well plate which had been coated for 1.5 hours at room temperature with matrigel (Matrigel low growth factor concentration; BD Biosciences, Clontech, Palo Alto, Calif., diluted 1:30 in DMEM/F12 Pen-Strep). After one day, the unbound aggregates were discarded and fresh ITTSPP/B27 medium, supplemented with 20 ng/ml EGF, was added. Medium was changed every 3-4 days.
5. Passage with trypsin—Following 1-2 weeks, aggregates were detached and partially dissociated by a short treatment with trypsin 0.05% (2-3 min, 37° C.; Biological industries, Beit Haemek, Israel, diluted in PBS, —Ca and —Mg). Trypsin was rapidly neutralized by addition of 4 volumes of BSA (2 mg/ml; Sigma for Tissue culture) in ITTSPP/B27, and centrifugation at (200 rpm, 10 min), followed by another wash with BSA. This treatment dissociates the aggregates to small clusters that are seeded again onto matrigel-coated plates (at dilution 1:3), in ITTSPP/B27, 20 ng/ml EGF, for another 1-2 weeks (step M2).
(§1) 6. Steps F1,2: Terminal differentiation on matrigel—In step F1 (3 days), the medium was changed to ITTSPP/B27 containing EGF 5 ng/ml and bFGF 5 ng/ml, together with mouse laminin 1 μg/ml, and Vit C (50 μg/ml; Sigma-Aldrich, St. Lewis, Mo.). Some of the wells were treated with noggin (50 ng/ml Noggin-Fc chimera; R&D systems, Minneapolis, Minn.), 2 days after seeding, and noggin was continued thereafter. In step F2, cells were cultured 6 or 10 days in the same medium without growth factor, but with or without noggin. The medium was changed every two to four days.
Immunostaining—Cells were fixed in 12 or 24-well tissue culture plastic plates with 4% paraformaldehyde (PFA), washed with PBS, and kept at 4° C. before staining. Non-specific staining was blocked with normal goat serum (5% w/v in PBS) for 30 min at RT. Thereafter primary mouse monoclonal (mMc) antibodies, diluted in 1% goat serum, were administered. Antibodies used were: anti PDGFR (mMc IgG1, Santa Cruz, 1:500), O4 (mMc IgM, R&D Systems, 1:1000), O1 (mMc IgM, received from Dr Sheila Harroch, Pasteur Institute, Paris), anti tubulin-βIII (mMc IgG1, Cowance, 1:1000), and antibody 1281 (human nuclei antigen HNA, Chemicon). […]

human ES cells = assay: RT-PCR gene expression at the different culture steps; format: cell-based
Method: RT-PCR—total RNA was isolated from cultures at different culture steps using Tri-Reagent (Molecular Research Center, Cincinnati, Ohio) and RT-PCR was carried out by standard technology as previously described (Slutsky et al., 2003). Expression was checked for the following genes, as described in table 2 below, including the expression of the control gene G3PDH. Also provided in the table are primer sequences used for each gene. For G3PDH, primers from Clontech (Palo Alto, Calif., catalog #9805-1) were used.

[2] = test system: human ES cell-derived oligodendrocytes; assay: Number of MBP+ oligodendrocytes by immunostaining; format: cell-based; conditions: step F2, 10 days without GF, noggin vs without noggin; FIG. 2g
Method: as §1
Immunostaining—Cells were fixed in 12 or 24-well tissue culture plastic plates with 4% paraformaldehyde (PFA), washed with PBS, and kept at 4° C. before staining. Non-specific staining was blocked with normal goat serum (5% w/v in PBS) for 30 min at RT. Thereafter primary mouse monoclonal (mMc) antibodies, diluted in 1% goat serum, were administered. […] An Olympus IX-70 FLA microscope with a DVC-1310C digital camera (DVC, Austin, Tex.) was used and images were processed with Photoshop and analyzed with Image-ProPlus software (Media Cybernetics, Silver Spring, Md.), in order to measure Integrated Optic Density (IOD) of color-specific pixels and MBP fiber length. […]

Shiverer mice = assay: Transplantation of huES-NSc into brain of shiverer mice, MBP-stained fibers; format: in vivo, mouse; conditions: FIG. 4e
Excerpt: Animal model—Shiverer mice have an extensive deletion in the MBP gene (Roach et al., 1985) and in a homozygous shi−/− animal there is no MBP immunoreactivity in the CNS. The appearance of fibers showing immunostaining for MBP following transplantation of oligodendrocyte precursors therefore indicates, that the transplanted cells have the capacity to myelinate endogenous neurons (Lachapelle et al., 1983).
Transplantation of huES-NSc in Shiverer mice—For transplantation, ES cell-derived dissociated neuroglial sphere cells (huEs-NSc) were prepared as described in Example 3. The culture steps from step T to step D3 that were followed, are outlined in Table 1 condition 3. in Example 1. However, Step D3 was for 9 days, with and without 50 ng/ml noggin. Growth factors were then removed for one day, during which 1 μg/ml laminin, and 50 μg/m Vit C were added to the N2/B27 medium (step F2, as described in Example 1). The culture was thereafter subjected to the short trypsin treatment (see Example 1) and the cells were injected intraventricularly to homozygous shiverer mice. One day old shi/shi pups were anesthetized by brief hypothermia and received an injection of 10^5 cells in 2 μl, over a period of 3 minutes, into the brain third ventricule, using a Hamilton 10 μl syringe. The pups were then warmed and returned to their mothers. […]

shiverer brain slices = assay: Ex vivo transplantation of human ES-NSc on shiverer brain slices (organotypic cultures), MBP staining and electron microscopy; format: cell-based, mouse
Method: Immunostaining—Cells were fixed in 12 or 24-well tissue culture plastic plates with 4% paraformaldehyde (PFA), washed with PBS, and kept at 4° C. before staining. Non-specific staining was blocked with normal goat serum (5% w/v in PBS) for 30 min at RT. Thereafter primary mouse monoclonal (mMc) antibodies, diluted in 1% goat serum, were administered. Antibodies used were: anti PDGFR (mMc IgG1, Santa Cruz, 1:500), O4 (mMc IgM, R&D Systems, 1:1000), O1 (mMc IgM, received from Dr Sheila Harroch, Pasteur Institute, Paris), anti tubulin-βIII (mMc IgG1, Cowance, 1:1000), and antibody 1281 (human nuclei antigen HNA, Chemicon). Following overnight exposure to the appropriate antibody (4° C.), biotinylated goat anti-mouse IgG1 (Southern Biotech, 1:50) was added for 30 minutes, followed by Cy3-tagged streptavidine (ABC laboratories, 1:2000). […] Staining for MBP was with rat monoclonal anti MBP (ab7349, AbCam, 1/500), and Cy3-conjugated Affipure goat anti rat IgG (Jackson laboratories, 1:500). […] An Olympus IX-70 FLA microscope with a DVC-1310C digital camera (DVC, Austin, Tex.) was used and images were processed with Photoshop and analyzed with Image-ProPlus software (Media Cybernetics, Silver Spring, Md.), in order to measure Integrated Optic Density (IOD) of color-specific pixels and MBP fiber length. […]

[3] = Dissociated cells, Passage 2, listed as noggin
[4] = On Matrigel, noggin added at Step S
[5] = On Matrigel, noggin added at Steps F and S

bFGF: recombinant human basic fibroblast growth factor
effect of addition at step S (ripening of neurospheres) ([1]; bFGF 20 ng/ml at step S): not found to be helpful
oligodendrocytes formed in the final differentiation step F ([1]; bFGF alternating with EGF during step S (without noggin), step F with noggin): 0.66±0.5
expansion of dissociated precursor cells ([1]; combination of bFGF and EGF at step D2): better than EGF alone
induction of Nkx2.2 (human ES cells; protocol based on bFGF treatment with neither RA nor noggin, FIG. 1b): failed to induce Nkx2.2

Noggin
oligodendrocytes formed in the differentiation step ([1]; Dissociated cells, passage 2, noggin added at the early step S): 1.77±1.2
Fold (with vs without noggin), number of oligodendrocytes per field ([1]; Dissociated cells, Passage 2): 9.1
Number of oligodendrocytes per field ([1]; Dissociated cells, Passage 2): 5.20 ± 1.7
O4+ cells with ramified oligodendrocyte shape as share of total cells ([1]; Dissociated cells, Passage 2): about 5%
total O4+ cells as share of total cells ([1]; Dissociated cells, Passage 2): about 15%
Fold (with vs without noggin), number of oligodendrocytes per field [1, 3]: 9
Number of oligodendrocytes per field [1, 3]: 5.20±1.7
Fold (with vs without noggin), number of oligodendrocytes per field ([1]; Dissociated cells, Passage 3): 7.1
Number of oligodendrocytes per field ([1]; Dissociated cells, Passage 3): 10.14 ± 5.2
Fold (with vs without noggin), number of oligodendrocytes per field ([1]; Dissociated cells, Passage 4): 6.0
Number of oligodendrocytes per field ([1]; Dissociated cells, Passage 4): 12.05 ± 3.6
Number of oligodendrocytes per field ([1]; On Matrigel, noggin 50 ng/ml added at Step F, 6 days without growth factors, fields of 0.4 mm^2): 5.76 ± 4.2
Fold (with vs without noggin), number of oligodendrocytes per field ([1]; On Matrigel, noggin added at Step F): 8.7
Fold (with vs without noggin), number of oligodendrocytes per field [1, 4]: 2.2
Number of oligodendrocytes per field [1, 4]: 1.50 ± 1.4
Fold (with vs without noggin), number of oligodendrocytes per field [1, 5]: 4.4
Number of oligodendrocytes per field [1, 5]: 2.95 ± 1.7
proportion of oligodendrocytes of the total cells in the culture ([1]; after sub-passages (passages 3 and 4), noggin during steps D and F): 43%
number of well-developed oligodendrocytes displaying ramified branches ([1]; on matrigel, 10 days without growth factors, FIGS. 1g-h): strong effect
expression of Oct4 and Rex1 (human ES cells; after step S with noggin): down-regulated
expression of myelin proteolipid protein (PLP) (human ES cells; after step S with noggin): increasing
expression of PDGF-Rα (human ES cells; after step S with noggin, FIG. 1a lane 3): decreased
expression of Nkx2.2 and Sox10 (human ES cells; after step S, noggin 50 ng/ml, FIG. 1a lane 3): seen only when noggin was added
number of MBP+ oligodendrocytes [2]: very significant stimulation; also recorded: strong stimulation
number of MBP fibers/field (Shiverer mice; cells cultured with vs without noggin): increased
increase in the number of MBP fibers (Shiverer mice; huES-NSc treated 9 days with 50 ng/ml noggin at step D3, injected into third ventricule, four weeks): 3.5-4 fold
myelin by electron microscopy (shiverer brain slices; brain tissue transplanted with noggin-treated huES-NS cells, FIG. 5e,f): compacted myelin sheaths, with major dense lines, were formed
overall myelinating capacity (extent of MBP staining and mean length of MBP+ fibers) (shiverer brain slices; noggin-treated vs untreated huES-NS cells, two weeks after implantation, FIG. 5g): markedly enhanced
